Test in all cases: NCI-60 cell line screen, 48 h
The test system of assay [1] is A549 NSCLC.
In assay [2] the test system is BT-549 breast.
The test system of assay [3] is HCC-2998 colon.
The subject of assay [4] is HCT-116 colon.
Assay [5] has as its system K-562 leukemia.
The subject of assay [6] is M14 melanoma.
Assay [7] relates to MDA-MB-435.
Assay [8] has as its system NCI-H226 lung.
Assay [9] concerns OVCAR-4 ovarian.
The subject of assay [10] is SF-268 CNS.
Assay [11] relates to SF-539 CNS.
Assay [12] has as its system SK-MEL-28 melanoma.
Assay [13] relates to SK-OV-3 ovarian.
The subject of assay [14] is SN12C renal.
Assay [15] has as its system SW-620 colon.
For assay [16], the system named is T-47D breast.
In assay [17] the test system is U251 CNS.
Assay [18] relates to UACC-257 melanoma.
The subject of assay [19] is UO-31 renal.
For assay [20], the system named is CCRF-CEM leukemia.

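Growth conditions: 96-well plates. Treatment: test compound, 48 hours, 5 concentrations. Analysis: linear interpolation between bracketing concentrations; unreached endpoints set to highest concentration. The concentration for full growth arrest is given as TGI.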 Bounds are passed on as bounds.

Take `COc1ccc(C2=NNC(=O)c3ccccc3N2c2nc(-c3cccs3)nc3cc(OC)c(OC)cc23)cc1`: the TGI is above 100 µM in assay [1]; 6.63 µM in [2]; 7.21 µM in assay [3]; above 100 µM in assay [4]; above 100 µM in assay [5]; 20.2 µM in assay [6]. The TGI in assay [7] was 13.6 µM; in assay [8], 20.6 µM; in assay [9], 4.49 µM; in assay [10] it was above 100 µM; in assay [11], 8.56 µM; in assay [12] it was 5 µM. Further, the TGI in assay [13] is above 100 µM; in assay [14], 11.1 µM; in [15], above 100 µM; in assay [16] it was 17.6 µM; in assay [17], 33.3 µM; in assay [18], 88.2 µM. The TGI in assay [19] is 25 µM.

`CCOC(=O)c1cc(C)nc2c1c(=O)n(-c1ccccc1)c(=O)n2CCCCN1CCN(c2ncccn2)CC1`: the TGI was above 100 µM in assay [1]; above 100 µM in assay [2]; 97.7 µM in [20]; above 100 µM in assay [3]; above 100 µM in [4]; above 100 µM in assay [5]. Moreover, the TGI in assay [6], in [7], in assay [8], in assay [10], in assay [12] and in [13] was above 100 µM throughout. Besides, the TGI in assay [14], in [15], in assay [16], in [17], in [18] and in assay [19] was above 100 µM each time.

Consider `CSc1nc(NCc2ccccc2)c2cnn(COCCO)c2n1`, for which the TGI in [1], in assay [2], in [20], in [4], in assay [5] and in assay [6] was above 100 µM in each case. The TGI was 80.5 µM in assay [7]; above 100 µM in assay [8]; above 100 µM in assay [9]; above 100 µM in [10]; above 100 µM in [11]; above 100 µM in [13]. For the same compound, the TGI was above 100 µM in assay [14]; above 100 µM in [15]; above 100 µM in [16]; above 100 µM in assay [17]; 64 µM in [18]; above 100 µM in assay [19].

Regarding `COc1ccc(Nc2nc(N)c(C(=O)c3ccc(Cl)cc3)s2)cc1`, the TGI in [1] was 22.3 µM; in [2], above 73.6 µM; in assay [3], 3.47 µM; in assay [4] it was 6.64 µM; in assay [5], above 100 µM; in [6] it was above 64.4 µM. Also, the TGI was below 0.01 µM in [7]; 0.117 µM in assay [8]; 2.65 µM in assay [9]; above 67.5 µM in [10]; 0.18 µM in assay [11]; above 100 µM in assay [12]. The TGI in assay [13] was 20.4 µM; in assay [14], 22.3 µM; in [15], above 100 µM; in [16] it was above 100 µM; in [17] it was 4.58 µM; in assay [18], above 100 µM. The TGI in assay [19] was found to be 16 µM.

As for `COc1ccc2[nH]c3c(c2c1)CC(=O)N1CCC[C@H](C1)CC31OCCCO1`, the TGI in [1], in assay [2], in [20], in assay [3], in assay [4] and in [6] was above 100 µM each time. Moreover, the TGI in assay [7], in assay [8], in [9], in assay [10], in [12] and in assay [13] was above 100 µM in each case. In addition, the TGI in assay [14], in assay [15], in assay [16], in assay [17], in [18] and in assay [19] was above 100 µM in each case.

`COc1cccc(CCNc2c(C#N)c3n(c4ccccc4[n+]3C)c3ncccc23)c1`: the TGI was 4.04 µM in assay [1]; 49.5 µM in [2]; 3.46 µM in assay [3]; 5.3 µM in assay [4]; above 100 µM in assay [5]; 3.08 µM in assay [6]. In addition, the TGI in assay [7] came to 45.6 µM; in assay [8], 45.9 µM; in [9], 10.8 µM; in assay [10] it was 38.5 µM; in assay [11], 3.55 µM; in [12], 44.1 µM. The TGI in assay [13] is 42.1 µM; in assay [14], 32.7 µM; in [16], 14.7 µM; in assay [17], above 21.3 µM; in assay [18], 46.3 µM; in assay [19] it was 12 µM.

On to `CNC(=O)CNC(=O)N(C[C@@H]1CCCN1C(=O)[C@H](CC(C)C)NC(=O)OC(C)(C)C)C(C)C`, for which the TGI in assay [1], in [2], in [20], in assay [3], in [4] and in assay [5] was above 100 µM in each case. The TGI in assay [6], in [7], in assay [8], in assay [9], in [10] and in [12] was above 100 µM throughout. Further, the TGI in assay [13], in assay [14], in [15], in assay [16], in assay [17] and in assay [19] was above 100 µM in each case.

For the compound `CCNC(=S)NNC(=O)c1ccccc1Nc1ccccc1C(=O)NNC(=S)NCC`, the TGI in assay [1], in assay [2], in [20], in assay [3], in assay [4] and in assay [5] was above 100 µM each time. The TGI in [6], in [7], in assay [8], in [9], in assay [12] and in assay [13] was above 100 µM throughout. Also, the TGI in assay [14], in assay [15], in [16], in [17] and in assay [19] was above 100 µM each time.

The record behind these values is PubChem BioAssay (NCI).
